The values that follow come from patent US10590422B2, “Anticancer therapeutic intervention” (PHYZAT BIOPHARMACEUTICALS, LDA., priority 2017, dated 2020).

The target of data set [1] is T1, LAT1 (Homo sapiens, UniProt Q01650).
T1 construct: recognized the presence of LAT1 and ASCT2 in all cancer cell lines; endogenous in cells
The data set is described as follows: Sodium-independent [^14C]-L-leucine uptake in carcinoma cells, sensitivity to unlabelled L-leucine. Format: cell-based. Particulars: epithelial carcinoma cells; 3 mM unlabelled L-leucine; FIGS. 3A-3D. On the procedure: (§1) Cells were plated in 24-well plates (Sarstedt, Germany) and grown until confluence was reached. On the day of the experiment, cell culture medium was aspirated and cells were preincubated for 15 min in Hanks' medium (NaCl 140 mM, KCl 5 mM, MgSO4.7H2O 0.8 mM, K2HPO4 0.33 mM, KH2PO4 0.44 mM, MgCl2.6H2O 1 mM, CaCl2) 0.025 mM, Tris-HCl 9.75 mM, pH 7.4). Uptake was initiated by addition of Hanks' medium with 0.25 μM [^14C]-L-leucine in the absence and in the presence of 3 mM unlabeled L-leucine. During preincubation and incubation cells were continuously shaken and maintained at 37° C. Uptake was terminated after 1 min by rapid removal of uptake solution by means of a vacuum pump connected to a Pasteur pipette, followed by a rapid wash with Hanks' medium. Subsequently, cells were solubilized in 0.1% vol/vol Triton X-100 (dissolved in 5 mM Tris-HCl, pH 7.4), and radioactivity was measured by liquid scintillation counting.

For data set [2], the system named is LAT1. Kind of data set: LAT1 activity: [^14C]-L-leucine uptake in fibrosarcoma HT-1080 cells after LAT1 gene silencing. Particulars: 5 nM siRNA, treatment 6 h, at 48 h, 0.4% Lipofectamine 2000, FIG. 8A. Format: cell-based, human. The protocol:
as §1
(§2) Cells were plated in 24-well (Sarstedt, Germany) or 6-well plates (Sarstedt, Germany) or 96-well plates with black walls clear bottom (BD Biosciences, USA) and incubated 24 h under normal growth conditions. siRNAs against LAT1 and transfection agent were diluted at desired concentrations and mixed according to transfection agent manufacturer's instructions. The mixture was incubated 20 min at RT for siRNA-complex formation, after which it was added to the cells and incubated at 37° C., 5% CO2. After the incubation period, serum and antibiotic was restored and cells were further incubated at normal conditions for the desired time points until evaluation of LAT1 activity or LAT1 expression (immunoblotting and RT-qPCR).

In the next data set the test system is LAT1 mRNA. Kind of data set: LAT1 gene expression (RT-qPCR) after LAT1 gene silencing in human colon cancer HTC-116 cells. Format: cell-based. The conditions noted are these: treatment 6 h. The protocol:
(§3) SK-HEP-1, T24, HT-1080 and HCT-116 cell lines were maintained in a humidified atmosphere of 5% CO2 at 37° C. SK-HEP-1 cells were grown in RPMI-1640 (Sigma, St. Louis, Mo.) supplemented with 20% fetal bovine serum (FBS) (Gibco, UK), 100 U/mL penicillin G, 0.25 μg/mL amphotericin B, 100 μg/mL streptomycin (Gibco, UK), 25 mM sodium bicarbonate (Merck, Germany) and 25 mM N-2-hydroxyethylpiperazine-N′-2-ethanosulfonic acid (HEPES) (Sigma, St. Louis, Mo.). T24 and HT-1080 cells were grown, respectively, in Dulbecco's Modified Eagle's Medium (DMEM)—high glucose (Sigma, St. Louis, Mo.) and DMEM—low glucose (Sigma, St. Louis, Mo.), supplemented with 10% FBS (Gibco, UK), 100 U/mL penicillin G, 0.25 μg/mL amphotericin B, 100 μg/mL streptomycin (Gibco, UK), 25 mM sodium bicarbonate (Merck, Germany) and 25 mM HEPES (Sigma, St. Louis, Mo.). HCT-116 cells were grown in McCoy's 5A (Sigma, St. Louis, Mo.) supplemented with 10% FBS (Gibco, UK), 100 U/mL penicillin G, 0.25 μg/mL amphotericin B, 100 μg/mL streptomycin (Gibco, UK), 25 mM sodium bicarbonate (Merck, Germany) and 25 mM HEPES (Sigma, St. Louis, Mo.). For all cell lines the medium was changed every 2 days, and cells reached confluence 3-4 days after initial seeding. For subculturing, cells were dissociated with 0.25% trypsin-ethylenediaminetetraacetic acid (EDTA) (Sigma, St. Louis, Mo.), split 1:15 or 1:20 and subcultured in a 21-cm^2 growth area (Sarstedt, Germany).
Total RNA was isolated and purified using the SV Total RNA Isolation System (Promega, USA) according to manufacturer's instructions. RNA quality and concentration were verified in the NanoDrop ND1000 Spectrophotometer (Thermo Scientific, USA), and RNA integrity and genomic DNA contamination were evaluated by agarose gel electrophoresis. Total RNA (1 μg) was converted into cDNA using the Maxima Scientific First Strand cDNA Synthesis Kit for RT-qPCR (Thermo Scientific, USA), according to instructions. The following protocol was used: 1st step, 10 min at 25° C.; 2nd step, 15 min at 50° C.; 3rd step, 5 min at 85° C. cDNA was used for qPCR analysis using Maxima SYBR Green qPCR Master Mix (Thermo Scientific, USA) in the StepOnePlus instrument (Applied Biosystems, USA). QuantiTect Primer Assay for LAT1 and ASCT2 and for the endogenous control gene GAPDH (Quiagen, Germany) were used. The qPCR reaction was performed in 96-well PCR plates (Sarstedt, Germany) as follows: one cycle of 10 min at 95° C., followed by 40 PCR cycles at 95° C. 15 s and 60° C. 60 s. […] No template controls were always evaluated for each target gene. Quantification cycle (Cq) values were generated automatically by the StepOnePlus 2.3 Software and the ratio of the target gene was expressed in comparison to the endogenous control gene GAPDH.
as §2
In general terms: In qPCR the cycle at which signal appears reflects the starting amount.

The test system of data set [3] is human colon cancer HTC-116 cells. The data set is described as follows: Cell proliferation assay (calcein-AM) in human colon cancer HTC-116 cells. Format: cell-based. Particulars: for cell proliferation / proliferation: treatment 6 h; for cell proliferation: 72 h exposure, 0.1% Injectin, FIG. 14; for proliferation: at 72 h, 0.17% Lipofectamine 2000 or 0.1% Injectin, FIGS. 19B and 20B. On the procedure:
as §3
Cell proliferation was measured using calcein-AM (Thermo Fisher Scientific, USA). The membrane permeant calcein-AM, a nonfluorescent dye, is taken up and converted by intracellular esterases to membrane impermeant calcein, which emits green fluorescence. Cells were plated in 96-well plates with black walls clear bottom (BD Biosciences, USA) and incubated 24 h under normal growth conditions. Cells were incubated with test items at 37° C., 5% C02. After the incubation period, serum and antibiotic was restored and cells were further incubated at normal conditions during 72 h. After treatment with test substances or vehicle, cells were washed twice with Hanks' medium and loaded with 2 μM calcein-AM in Hanks' medium, at 37° C. for 30 min. Fluorescence was measured at 485 nm excitation and 530 nm emission wavelengths in a microplate spectrofluorometer (Gemini EM, Molecular Devices). Nine consecutive fluorescence measurements are performed per well, to allow fluorescence readings in the whole area of the well, which was then considered for the calculation of mean fluorescence per well. To determine minimum staining for calcein (calceinmin), eight wells were treated with ethanol 30 min before calcein-AM addition. The percent cell number is calculated as [(calceinsample)/(calceincontrol)]×100.

The target of a further data set is T2, ASCT2 (Homo sapiens, UniProt Q15758).
T2 construct: recognized the presence of LAT1 and ASCT2 in all cancer cell lines; endogenous in cells
T2 sequence (Q15758 1-541): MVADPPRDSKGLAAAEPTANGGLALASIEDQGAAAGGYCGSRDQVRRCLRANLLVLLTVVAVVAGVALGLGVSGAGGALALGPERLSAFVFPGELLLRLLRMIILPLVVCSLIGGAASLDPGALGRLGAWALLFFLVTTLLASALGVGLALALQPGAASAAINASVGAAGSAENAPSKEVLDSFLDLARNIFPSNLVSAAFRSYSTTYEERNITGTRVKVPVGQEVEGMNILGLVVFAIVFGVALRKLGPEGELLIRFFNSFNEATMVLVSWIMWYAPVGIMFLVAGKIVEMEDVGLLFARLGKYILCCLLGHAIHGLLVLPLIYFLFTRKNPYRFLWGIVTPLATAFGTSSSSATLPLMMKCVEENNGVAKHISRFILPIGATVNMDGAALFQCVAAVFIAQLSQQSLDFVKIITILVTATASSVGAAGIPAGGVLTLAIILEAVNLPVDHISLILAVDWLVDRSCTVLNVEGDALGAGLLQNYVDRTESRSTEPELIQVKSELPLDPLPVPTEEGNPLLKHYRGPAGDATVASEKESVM
The data set is described as follows: Sodium-dependent [^14C]-L-alanine uptake in carcinoma cells, sensitivity to unlabelled L-alanine. It counts as cell-based. The conditions noted are these: epithelial carcinoma cells; 3 mM unlabelled L-alanine; FIGS. 3E-3H. The protocol: as §1, with “the experiment, Cell culture medium” for “the experiment, cell culture medium”, “Hanks' medium (ChCl 140 mM,” for “Hanks' medium (NaCl 140 mM,”, “initiated by the addition of” for “initiated by addition of”, “0.25 μM [^14C]-L-alanine in the” for “0.25 μM [^14C]-L-leucine in the”, “mM unlabeled L-alanin. During preincubation” for “mM unlabeled L-leucine. During preincubation”

Setting [4] is: 5 or 25 nM siRNA, at 24 h or 48 h, 0.5% Lipofectamine 2000, FIGS. 9A and 9C.
Setting [5] is: 72 h, 0.17% Lipofectamine 2000 or 0.1% Injectin, FIG. 19A.

T1 sequence (Q01650 whole entry): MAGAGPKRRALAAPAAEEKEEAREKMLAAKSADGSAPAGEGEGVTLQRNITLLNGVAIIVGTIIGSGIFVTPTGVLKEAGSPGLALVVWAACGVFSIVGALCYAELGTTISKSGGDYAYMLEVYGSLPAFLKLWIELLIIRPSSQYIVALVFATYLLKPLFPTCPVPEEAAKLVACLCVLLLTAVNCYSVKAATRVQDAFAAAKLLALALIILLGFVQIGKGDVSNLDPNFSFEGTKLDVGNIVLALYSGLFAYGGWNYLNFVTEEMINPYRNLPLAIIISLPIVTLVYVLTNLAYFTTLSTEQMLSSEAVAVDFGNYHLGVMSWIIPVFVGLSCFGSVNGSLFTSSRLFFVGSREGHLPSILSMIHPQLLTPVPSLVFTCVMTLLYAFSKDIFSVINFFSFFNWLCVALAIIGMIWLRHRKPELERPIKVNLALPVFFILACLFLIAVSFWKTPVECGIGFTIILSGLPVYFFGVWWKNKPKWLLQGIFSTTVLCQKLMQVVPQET
T1 sequence (P08195 102-630 partner): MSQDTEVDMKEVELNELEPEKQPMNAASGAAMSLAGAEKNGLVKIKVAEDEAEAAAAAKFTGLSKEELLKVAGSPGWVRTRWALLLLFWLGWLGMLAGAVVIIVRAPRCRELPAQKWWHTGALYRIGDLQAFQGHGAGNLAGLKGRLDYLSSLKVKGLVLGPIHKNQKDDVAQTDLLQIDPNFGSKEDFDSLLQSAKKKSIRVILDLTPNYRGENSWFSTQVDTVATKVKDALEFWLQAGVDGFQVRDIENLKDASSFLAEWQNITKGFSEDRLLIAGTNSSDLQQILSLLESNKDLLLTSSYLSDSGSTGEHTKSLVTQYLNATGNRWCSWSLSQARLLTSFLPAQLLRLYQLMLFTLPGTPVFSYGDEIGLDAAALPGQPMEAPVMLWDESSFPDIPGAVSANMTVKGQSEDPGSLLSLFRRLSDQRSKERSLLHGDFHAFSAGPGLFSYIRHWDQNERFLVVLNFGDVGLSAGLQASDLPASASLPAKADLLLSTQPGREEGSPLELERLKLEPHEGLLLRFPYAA

With `CC(C)C[C@H](N)C(=O)O` [L-leucine], the “Sodium-independent [^14C]-L-leucine (0.25 μM) uptake at initial rate of uptake (1 min)” value at LAT1 [1] is reported as “significantly (P<0.001) reduced”.
Take “58/162/411 (sense CUUCGCCACCUACCUGCUCAA; antisense UUGAGCAGGUAGGUGGCGAAG; chemistry not given here)”: the “[^14C]-L-leucine (0.25 μM) uptake at initial rate of uptake (1 min)” value in the data set with LAT1 [2] was “decreased”. Moreover, the “LAT1 mRNA relative abundance” value in the data set with LAT1 mRNA (setting [4]) is reported as “decreased”. In addition, the “LAT1 mRNA relative abundance” value in the data set with LAT1 mRNA (setting [5]) is listed as “significantly decreased”. For the same compound, in data set [3], the cell proliferation result is “decreased” and the proliferation entry is on record as “significantly decreased”.
On to “61/165/396 (sense CGUGAACUGCUACAGCGUGAA; antisense UUCACUCUGUAGCAGUUCACG; chemistry not given here)”, for which the “[^14C]-L-leucine (0.25 μM) uptake at initial rate of uptake (1 min)” value in the data set with LAT1 [2] is “decreased”. Besides, the “LAT1 mRNA relative abundance” value with LAT1 mRNA (setting [4]) is given as “decreased”. In addition, the “LAT1 mRNA relative abundance” value with LAT1 mRNA (setting [5]) was “significantly decreased”. In data set [3], the cell proliferation entry is reported as “decreased” and the proliferation result is on record as “significantly decreased”.
Take “61/391/392 (chain 1 CGUGAACUGCUACAGCGUGAATT; chain 2 UUCACUCUGUAGCAGUUCACGTT; siRNA; sugars by position and backbone not given here; further chemistry not fully specified)”: in the data set with LAT1 [2], the “[^14C]-L-leucine (0.25 μM) uptake at initial rate of uptake (1 min)” value is on record as “decreased”. For the same compound, the “LAT1 mRNA relative abundance” value in the data set with LAT1 mRNA (setting [4]) was “decreased”; in the data set with LAT1 mRNA (setting [5]), “significantly decreased”. For the same compound, in data set [3] (5-FU 10 μM, siRNA 25 nM, 72 h, 0.037% Injectin, FIG. 17A), the “Effect of 5-fluoruracil upon proliferation in combination with the siRNA” value is recorded as “not”. Moreover, the cell proliferation entry in data set [3] was “decreased”. For the same compound, the proliferation result in data set [3] was “significantly decreased”.
Take `C[C@H](N)C(=O)O` [L-alanine]: at ASCT2, the “Sodium-dependent [^14C]-L-alanine (0.25 μM) uptake at initial rate of uptake (1 min)” value is “significantly (P<0.01) reduced”.
